Reference: US20230331767A1, “TARGETED STEROID COMPOUNDS” (priority 2020, published 2023)

Experiments:
[1] = system: F4/80 (mouse macrophage), CD4 (T helper cell), CD8 (cytotoxic T cell), and Ly6G (neutrophil) cells; assay: Thioglycollate-induced peritonitis, flow cytometry of peritoneal lavage cells; assay type: in vivo, BALB/C or Swiss Webster mice; details: treated group vs the untreated or vehicle, peritoneal cavity; for percentage of F4/80 macrophages: 10 nmol I.V. 48 hrs after induction stated for Compound 107
Experimental: Induced peritonitis with 1.5 mL 3% thioglycollate injected I.P. into either BALB/C or Swiss Webster mice maintained on a folate free diet for at least three weeks and treated with 10 nmol Compound 107 injected I.V. 48 hrs after induction. After an additional 48 hrs the mice were euthanized, and peritoneal lavage was performed using 2% fetal bovine serum (FBS) in phosphate buffered saline (PBS). Cells were passed through a 70 µm cell filter to remove debris then counted using a hemocytometer. Approximately 1 million cells pre-incubated in anti-CD16/32 (to block endogenous Fc receptor binding) for one hour on ice in 100 µL of 2% FBS in PBS. Then the cells incubated with at least one of the following fluorescently labeled antibodies for cell surface markers: PE-F4/80 or PE/Cy7-F4/80 (mouse macrophage), FITC-CD4 (T helper cell), eFluor780-CD8 (cytotoxic T cell), and PerCP/Cy5.5-Ly6G (neutrophil) according to the manufacturers recommended procedure on ice for 1 hour. Cells were washed twice with 1 mL of ice cold 2% FBS in PBS then suspended in 2% FBS in PBS. Controls included unstained cells as the negative control as well as the use of 1 drop of compensation beads per dye-antibody (1 µL) for a positive control incubated for 1 hour on ice and washed twice with 1 mL 2% FBS in PBS. All samples were centrifuged at 400xg for 10 min between washes, transfers and after incubation to remove supernatant.
Samples and appropriate controls were analyzed on an Attune NxT Acoustic Focusing Cytometer collecting between 10,000 and 30,000 events per sample utilizing laser lines BL1-A, BL2-A, BL3-A, and YL4-A for FITC-CD4, PE-F4/80, PerCP/Cy5.5-Ly6G and eFluor780-CD8 or PE/Cy7-F4/80, respectively. Flow cytometry data analysis involved first observing the cells run in the experiment using forward and side-scattering light (FSC and SSC, respectively). All observed cells were gated (R1) and analyzed for relative abundance of F4/80 (mouse macrophage), CD4 (T helper cell), CD8 (cytotoxic T cell), and Ly6G (neutrophil) cells within the population. Values from quadrant gating based on negative controls were then represented in bar graph form.

[2] = system: colon; details: 10nmols i.v. on days 3 and 4; 2.5% DSS for 6 days; treated vs untreated colon, day 6
Experimental: 8-12 week old C57BL/6 mice were maintained on a folate free diet for at least three week dextran sodium sulfate (DSS) was added to their drinking water at a final concentration of 2.5% for 6 days. […] On day 6 the mice were euthanized by CO2 affixation followed by cervical dislocation. Then the colons were excised and prepared for histology as described previously (J Vis Exp. 2012; (60): 3678.). Briefly, the colons were cut out and the fecal contents were gently removed and washed in PBS. The colons were fixed in 10% buffered formalin for 24 hrs followed by transfer to 70% ethanol. These samples were submitted to the Purdue Veterinary Pathology lab where they were embedded in paraffin, sectioned, and stained with hematoxylin and eosin.

[3] = system: macrophage; assay: Flow cytometry of thioglycolate-elicited peritoneal macrophages gated on F4/80, CD 206 expression (M2 marker); assay type: cell-based, ND4 mice; details: 20 nanomolar; targeted group vs competition group (plus 100-fold excess folate-glucosamine); macrophage gated on F4/80
Experimental: (§1) FIG. 6 is an example of compound 101 in flow cytometry of macrophage gated on F4/80 to show CD 206 expression (a marker for M2, anti-inflammatory macrophages). Briefly, 1.5 mL of 3% thioglycolate were injected into the intraperitoneal cavity of 12-week-old ND4 mice. Three days later the macrophages were isolated by intraperitoneal lavage and plated in a 12-well dish and incubated at 37° C./5% CO2. After 24 hours, the media was replaced with media containing 20 nanomolar the compound in FIGS. 1 or 20 nanomolar of the compound in FIG. 1 plus 100-fold excess folate-glucosamine (to show receptor-specific binding) or untreated control or 10 nanomolar free dexamethasone (to show the effect of the free drug) and allowed to incubate at 37° C./5% CO2 for the allotted time. Then 3 days later the cells were detached and incubated with the corresponding fluorescently labeled antibodies for 1 hour at 4° C. in 1% fetal bovine serum (FBS) in phosphate- buffered saline (PBS). The samples were then washed 3 times with ice-cold 1% FBS in PBS before being analyzed by flow cytometry.

[4] = system: macrophage; assay: Flow cytometry of macrophage, CD 86 expression (M1 marker); assay type: cell-based, ND4 mice; details: 20 nanomolar compound, with or without folate-glucosamine competition; treatment for 24 hours
Experimental: as §1, with “After 24 hours, the media was replaced with media containing 20 nanomolar the compound in FIGS.” left out, “Then 3 days later the cells were detached and incubated with the corresponding fluorescently labeled antibodies for 1 hour at 4° C. in 1% fetal bovine serum (FBS) in phosphate- buffered saline (PBS).” left out
FIG. 8 is an example of Compound 101 in flow cytometry of macrophage to show CD 86 expression with controls.

Folate-AlbuminBinder-PEG2-Hydrolink-DimethylCysteine-Carbamate-Dexamethasone [Compound 107]
percentage of FITC-CD4 (T helper cell) [1]: lower
percentage of PerCP/Cy5.5-Ly6G (neutrophil) [1]: lower
percentage of eFluor780-CD8 (cytotoxic T cell) [1]: lower
percentage of F4/80 macrophages [1]: lower
crypt architecture (colon histology) [2]: more crypt architecture
infiltrating immune cells (colon histology) [2]: fewer infiltrating immune cells
number of goblet cells (colon histology) [2]: higher number of goblet cells

Folate-PEG2-Hydrolink-DimethylCysteine-Carbamate-Dexamethasone [Compound 106]
percentage of F4/80 macrophages [1]: lower

Folate-PEG12(CH2)-Pyrophosphate-Dexamethasone [Compound 108]
percentage of FITC-CD4 (T helper cell) [1]: lower
percentage of PerCP/Cy5.5-Ly6G (neutrophil) [1]: lower
percentage of eFluor780-CD8 (cytotoxic T cell) [1]: lower
percentage of F4/80 macrophages [1]: lower

C[C@H]1C[C@@H]2[C@H]3CCC4=CC(=O)C=C[C@@]4(C)[C@]3(F)[C@H](O)C[C@@]2(C)[C@]1(O)C(=O)COC(=O)NCCSSC(C)(C)C(NC(=O)c1ccc(NCc2cnc3nc(N)[nH]c(=O)c3n2)cc1)C(=O)O (some centres unmarked) [Compound 101, Folate-Hydrolink-Cysteine-Carbonate-Dexamethasone]
CD 206 expression (marker for M2, anti-inflammatory macrophages) [3]: Increased expression of CD 206 in the targeted group over the competition group
CD 86 expression (marker for M1, pro-inflammatory macrophages) [4]: no observable differences
